Measurements reported in US5324715A, “Protein for inhibiting collagen-stimulated platelet aggregation” (Merck & Co., Inc., priority 1993, dated 1994).

B1: collagen-stimulated platelet aggregation inhibitor isolated from Haementeria officinalis salivary gland extract (leech antiplatelet protein, LAPP) (protein)
chain: QDEDAGGAGDETSEGEDTTGSDETPSTGGGGDGGNEETITAGNGDCWSKRPGWKLPDNLLTKTEFTSVDECRKMCEESAVEPSCYILQINTETNECYRNNEGDVTWSSLQYDQPNVVQWHLHACSK

Assays:
washed human platelets = assay: Collagen-stimulated platelet aggregation (aggregometer); format: cell-based; conditions: 0.25 mM arachidonic acid added later; 2 μg/ml collagen; inhibitor of Examples 1 and 2 present
Description: Human platelets are washed in modified Tyrode's buffer with no Ca^++ with 0.2 mg/ml fibrinogen. The washed platelets are incubated at 37° C. for 2 minutes with the sample to be tested. Collagen at 1 or 2 μg/ml final concentration is added and platelet aggregation in an aggregometer is monitored. Inhibitory activity is defined as a decrease in the rate and/or extent of platelet aggregation.
The IC50 for this inhibition was 45 nM. Inhibition of collagen stimulation was overcome by later addition of 0.25 mM arachidonic acid.

Molecule | Inhibition of collagen stimulation of platelet aggregation (by the Haementeria officinalis inhibitor) overcome by later addition (washed human platelets) | IC50 of inhibition of collagen-stimulated platelet aggregation (collagen)
CCCCC/C=C\C/C=C\C/C=C\C/C=C\CCCC(=O)O [arachidonic acid] | overcome | –
B1 | – | 45 nM
